Assay results published in BindingDB's records for PubMed 11546835 (Mcgill University, 2001).
Where “and” joins values, the source holds several entries; their conditions need not be identical. Equal entries are not always repeated. Residues, ends and D or L forms follow the SMILES beside them.

Molecular target: Nociceptin receptor (Mus musculus, UniProt P35377)
Sequence (P35377 whole entry): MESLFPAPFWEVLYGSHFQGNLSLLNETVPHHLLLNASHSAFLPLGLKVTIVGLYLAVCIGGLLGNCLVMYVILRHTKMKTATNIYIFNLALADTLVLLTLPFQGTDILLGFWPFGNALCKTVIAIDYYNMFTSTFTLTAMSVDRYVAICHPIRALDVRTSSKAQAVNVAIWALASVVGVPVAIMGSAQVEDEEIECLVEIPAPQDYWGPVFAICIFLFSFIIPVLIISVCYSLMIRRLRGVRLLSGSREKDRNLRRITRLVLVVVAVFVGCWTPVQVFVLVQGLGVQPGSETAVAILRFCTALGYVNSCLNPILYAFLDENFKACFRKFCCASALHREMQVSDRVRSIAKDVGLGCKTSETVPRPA

CSCC[C@H](NC(=O)[C@H](Cc1ccccc1)NC(=O)CNC(=O)CNC(=O)[C@@H](N)Cc1ccc(O)cc1)C(=O)O [2-[(S)-2-(2-{2-[(S)-2-Amino-3-(4-hydroxy-phenyl)-propionylamino]-acetylamino}-acetylamino)-1-oxo-3-phenyl-propylamino]-4-methylsulfanyl-butyric acid]
Ki: 1000 nM

Oc1ccc2c3c1OC1c4[nH]c5c(c4CC4(O)CN(CCC314)C(C1CC1)C2)CC1(O)CN2CCC13c1c(ccc(O)c1OC53)CC2C1CC1 (stereo not given) [CAS_105618-26-6]
Ki: 898 nM and 7500 nM

CC(C)C[C@H](NC(=O)[C@H](Cc1ccccc1)NC(=O)CNC(=O)CNC(=O)[C@@H](N)Cc1ccc(O)cc1)C(=O)N[C@@H](CCCNC(=N)N)C(=O)N[C@@H](CCCCN)C(=O)N[C@@H](Cc1ccc(O)cc1)C(=O)N1CCC[C@H]1C(=O)N[C@@H](CCCCN)C(=O)O [CB0427223] (H-YGGFLRKYPK-OH)
Ki: 192 nM

CC(C)C[C@H](NC(=O)[C@H](Cc1ccccc1)NC(=O)CNC(=O)CNC(=O)[C@@H](N)Cc1ccc(O)cc1)C(=O)N[C@@H](CCCN=C(N)N)C(=O)N[C@@H](CCCN=C(N)N)C(=O)N[C@@H](CCC(N)=O)C(=O)N[C@@H](Cc1ccccc1)C(=O)N[C@@H](CCCCN)C(=O)N[C@H](C(=O)N[C@H](C(=O)N[C@H](C(=O)O)[C@@H](C)O)C(C)C)C(C)C [Dynorphin B (1-13)]
Ki: 33.9 nM and 247 nM

C[C@H](NC(=O)CNC(=O)[C@@H](NC(=O)[C@H](Cc1ccccc1)NC(=O)CNC(=O)CNC(=O)[C@@H](N)Cc1ccccc1)[C@@H](C)O)C(=O)O [OFQ/N (1-7)] (H-FGGFTGA-OH)
Ki: 440 nM and 360 nM
